Structures are written as SMILES.

Holding throughout (type): in vivo
Test [1] has as its system formalin-induced hind limb flinching. The experiment in a line: Formalin induced pain (Automated Nociception Analyzer test). Conditions: rat, 100 mg/kg oral gavage, 30 min before footpad formalin. The method, then: FIG. 3 illustrates the antinociceptive effects of the compound of example 22 in a rat model of ongoing spontaneous pain. The compound of example 22 was administered by oral gavage at a dose of 100 mg/kg followed 30 min later by a footpad injection of a dilute formalin solution. Formalin elicits a typical biphasic nociceptive response that manifests as spontaneous hind limb flinches which are counted and binned over 5 min epochs. […] Male Sprague Dawley rats of young adult age group and body weight range of 200-250 g were included in the study. Animals were housed under a 12 h light/dark cycle with food and water ad libitum. Animals were acclimatized in the observation chambers of Automated Nociception Analyzer (ANA) for 45-60 min, twice daily for two days prior to the study day. On the day of the study, metal bands were glued to the plantar surface of the right hind paw of each animal enrolled in the study set and kept in plastic observation chambers for 10-15 min. […] […] count data for each animal was recorded from 1 to 60 min post formalin injection, using ANA motion analysis software. The study was analyzed in 2 phases, the early phase extended from 0-10 min and second phase extended from 11-60 min post formalin injection. […]

The test system of test [2] is thermal hyperalgesia induced by intraplantar Complete Freund's Adjuvant. The experiment in a line: CFA-induced inflammatory thermal hyperalgesia (Hargreaves test). Conditions: rat, 60 mg/kg, dosed 48 h after footpad CFA. The method, then:
FIG. 2 illustrates the antihyperalgesic effects of the compound of example 22 in a rat model of inflammatory thermal hyperalgesia induced by an intraplantar injection of Complete Freund's Adjuvant (CFA). Thermal hyperalgesia is manifest as a reduction in the time for foot-withdrawal during irradiation with a painful thermal stimulus. The compound of example 22 was administered at a dose of 60 mg/kg, 48 h after footpad injection of CFA and produced a substantial reversal (77% and 68%) of thermal hyperalgesia when assessed at 1 h and 2 h post-dose, respectively.
FIG. 5 illustrates the antihyperalgesic effects of the compound of example 38 in a rat model of inflammatory thermal hyperalgesia induced by an intraplantar injection of CFA. Thermal hyperalgesia is manifest as a reduction in the time for foot-withdrawal during irradiation with a painful thermal stimulus. The compound of example 38 was administered at a dose of 60 mg/kg, 48 h after footpad injection of CFA and produced a substantial reversal (50%) of thermal hyperalgesia when assessed at 1 h post-dose.
FIG. 6 illustrates the antihyperalgesic effects of the compound of example 52 in a rat model of inflammatory thermal hyperalgesia induced by an intraplantar injection of CFA. Thermal hyperalgesia is manifest as a reduction in the time for foot-withdrawal during irradiation with a painful thermal stimulus. The compound of example 52 was administered at a dose of 60 mg/kg, 48 h after footpad injection of CFA and produced a substantial reversal (39%) of thermal hyperalgesia when assessed at 1 h post-dose.
Male Sprague Dawley rats of young adult age group and body weight range of 180-200 g were included in the study. Animals were housed under a 12 h light/dark cycle with food and water ad libitum. The animals underwent acclimatization with the observation chambers of the Hargreaves' apparatus for two days, twice daily for 45-60 min each time prior to initiation of study. Animals were also habituated to the apparatus for 15-30 min before each testing. Thermal hyperalgesia was assessed using the rat plantar test (Ugo Basile, Italy) following a modified method of Hargreaves (1988, “A new and sensitive method for measuring thermal nociception in cutaneous hyperalgesia”, Pain 32: 77-88). […]
Following basal readout of PWL values to the thermal stimulus (PWL measurements described previously), 50 μL of complete Freund's Adjuvant (CFA—1 mg/mL suspension—Sigma, USA, Cat # F5881) was injected subcutaneously into the plantar surface of the right hind (ipsilateral) paw of animals under light isoflurane anesthesia. […]
Next day (day 1) after 20-22 h of CFA injection, PWL of animals were recorded. Mean of three readings are taken as PWL recording of ipsilateral paw of each animal for pre and post CFA basal readout. […]

Test [3] concerns acetic acid-induced writhing (visceral pain). The test is described as follows: Acetic acid induced writhing test. As to conditions: mouse, 20, 40 and 60 mg/kg oral gavage, 30 min before i.p. acetic acid, counted 15 min. The method, then:
FIG. 4 illustrates the antinociceptive effects of the compound of example 22 in a mouse model of visceral pain. The compound of example 22 was administered by oral gavage at 3 dose levels (20, 40 and 60 mg/kg) 30 min prior to an intraperitoneal injection of a dilute acetic acid solution. When injected into the abdominal cavity, acetic acid induces a distinctive stretching response in the abdomen and at least one hind limb that is assumed to reflect a response to visceral pain. […] Statistical significance is indicated with respect to the vehicle control group and was performed using a one-way ANOVA followed by Dunnett's multiple comparison test. Swiss albino mice of 30-40 g were included in the study. The mice were given an intraperitoneal injection of 0.7% v/v acetic acid solution at an injection volume of 10 mL/kg, 30 min after oral administration of vehicle or test article control. Test articles were administered, typically, at doses between 20 and 60 mg/kg. The mice were placed individually into glass chambers. The number of writhes produced in these animals was counted for 15 min following acetic acid administration. For scoring purposes writhing was indicated by stretching of the abdomen with simultaneous stretching of at least one hind limb. See, e.g., FIG. 4. Statistical analysis was done with One way ANOVA followed by Dunnett's multiple comparison tests. […]
Background: In writhing tests, fewer writhes than in controls are read as antinociception.

With `CCc1cnnn1-c1cc(C(=O)NCc2ccc(C)nc2)cn2c(-c3ccc(C)s3)cnc12` [Example 22], the “second phase flinching response to formalin” value in test [1] was “attenuated the second phase flinching response to formalin”. For the same molecule, the “reversal of thermal hyperalgesia” value amounted to 77% in test [2] (assessed 1 h post-dose) and 68% in test [2] (assessed 2 h post-dose). The “pain responses (writhes) after acetic acid” value in test [3] is “clear dose-related reduction in the pain responses”.

Take `C[C@H](NC(=O)c1cc(-n2nncc2C(F)F)c2ncc(-c3ccc(Cl)s3)n2c1)c1nnc[nH]1` [Example 38]: in test [2] (assessed 1 h post-dose), the “reversal of thermal hyperalgesia” value was 50%.

With `CC[C@H](NC(=O)c1cc(-n2nncc2C(F)F)c2ncc(-c3ccc(C)s3)n2c1)c1nnc[nH]1` [Example 52], the “reversal of thermal hyperalgesia” value in test [2] (assessed 1 h post-dose) is on record as 39%.

For the origin of these results see US10316039B2, “P2X3 and/or P2X2/3 compounds and methods” (Asana Biosciences, LLC, priority 2013, dated 2019).
